Among the data in ChEMBL document CHEMBL1122152, “Synthesis of pseudo cofactor analogues as potential inhibitors of the folate enzymes” (J Med Chem, 1982) are inhibition values, retold here.

Assay [1] concerns the target T1, C-1-tetrahydrofolate synthase, cytoplasmic (Homo sapiens) (UniProt P11586).
T1 sequence (whole entry): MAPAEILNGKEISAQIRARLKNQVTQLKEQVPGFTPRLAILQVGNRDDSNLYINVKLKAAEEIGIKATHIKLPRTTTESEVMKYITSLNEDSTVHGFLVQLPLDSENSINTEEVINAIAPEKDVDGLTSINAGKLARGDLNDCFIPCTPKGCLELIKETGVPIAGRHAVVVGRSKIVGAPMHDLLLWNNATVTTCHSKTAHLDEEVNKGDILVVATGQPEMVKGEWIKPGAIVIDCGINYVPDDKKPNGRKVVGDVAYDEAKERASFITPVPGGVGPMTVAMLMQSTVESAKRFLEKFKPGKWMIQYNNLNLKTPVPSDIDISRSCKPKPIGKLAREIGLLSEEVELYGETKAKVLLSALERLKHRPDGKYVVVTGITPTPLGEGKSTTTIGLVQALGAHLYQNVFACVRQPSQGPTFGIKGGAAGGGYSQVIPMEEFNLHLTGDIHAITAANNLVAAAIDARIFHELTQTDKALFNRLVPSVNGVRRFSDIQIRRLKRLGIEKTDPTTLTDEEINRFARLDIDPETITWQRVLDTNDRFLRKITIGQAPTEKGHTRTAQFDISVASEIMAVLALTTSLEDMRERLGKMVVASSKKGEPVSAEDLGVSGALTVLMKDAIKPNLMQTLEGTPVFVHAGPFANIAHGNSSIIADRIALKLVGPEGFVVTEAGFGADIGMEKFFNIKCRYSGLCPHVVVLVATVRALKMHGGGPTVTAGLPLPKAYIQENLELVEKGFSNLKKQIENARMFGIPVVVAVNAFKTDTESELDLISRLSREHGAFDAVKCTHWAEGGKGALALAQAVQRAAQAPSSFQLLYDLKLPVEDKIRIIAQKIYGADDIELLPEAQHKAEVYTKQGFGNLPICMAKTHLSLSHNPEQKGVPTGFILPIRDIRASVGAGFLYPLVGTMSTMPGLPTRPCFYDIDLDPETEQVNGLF
The experiment in a line: Percent inhibition was measured against 5,10-Methylene Tetrahydrofolate Cyclohydrolase (porcine liver) enzyme at 10E-6 M inhibitory concentration. Conditions: Sus scrofa; target entry is the homologue from another species.

The target of assay [2] is T1, C-1-tetrahydrofolate synthase, cytoplasmic (Homo sapiens). In words: Percent inhibition was measured against 5,10-Methylene Tetrahydrofolate Cyclohydrolase (porcine liver) enzyme at 10E-5 M inhibitory concentration. Conditions: Sus scrofa; target entry is the homologue from another species.
Assay [3] shares this target. The experiment in a line: Percent inhibition was measured against 5,10-Methylene Tetrahydrofolate Cyclohydrolase (L1210 tumor tissue) enzyme at 10E-6 M inhibitory concentration. Conditions: Sus scrofa.
The species entered for assay [4] is Sus scrofa. The experiment in a line: Percent inhibition was measured against methionine synthetase (porcine kidney)enzyme at 10E-4 M inhibitory concentration.
The species named for assay [5] is Sus scrofa. In words: (§1) Percent inhibition was measured against 5,10-Methylene Tetrahydrofolate Cyclohydrolase (porcine liver) enzyme at 10E-4 M inhibitory concentration.
The species entered for assay [6] is Sus scrofa. The experiment in a line: Percent inhibition was measured against Serine transhydroxymethylase (porcine liver) enzyme. at 10E-4 M inhibitory concentration.
For assay [7], the target named is Dihydrofolate reductase (Bos taurus) (UniProt P00376). In words: Percent inhibition was measured against Dihydrofolate reductase (bovine liver) enzyme at 10E-4 M inhibitory concentration.
In assay [8] the test system is Columba livia. The experiment in a line: Percent inhibition was measured against glycinamide ribotide transformylase (pigeon liver) enzyme at 10E-4 M inhibitory concentration.
For assay [9], the species on record is Sus scrofa. In words: Percent inhibition was measured against 5,10-Methylene Tetrahydrofolate Reductase (porcine kidney) enzyme at 10E-4 M inhibitory concentration.
Assay [10] deals with formyltetrahydrofolate synthetase (Mus musculus). In words: Percent inhibition was measured against formyl tetrahydrofolate synthase (L1210 tumor tissue) enzyme at 10E-4 M inhibitory concentration.
The next assay concerns Thymidylate synthase. In words: Percent inhibition was measured against Thymidylate synthase (calf thymus) enzyme at 10E-4 M inhibitory concentration.
Assay [11] concerns Columba livia. The experiment in a line: Percent inhibition was measured against 5-amino-4-imidazolecarboxamide ribotide transformylase(pigeon liver) enzyme at 10E-5 M inhibitory concentration.
Assay [12] concerns the target T1, C-1-tetrahydrofolate synthase, cytoplasmic (Homo sapiens). In words: Percent inhibition was measured against 5,10-Methylene Tetrahydrofolate Cyclohydrolase (L1210 tumor tissue) enzyme at 10E-4 M inhibitory concentration.
The target in assay [13] is Thymidylate synthase (Homo sapiens) (UniProt P04818). In words: Percent inhibition was measured against Thymidylate synthase (calf thymus) enzyme. Conditions: concentration not given here.
Assay [14] deals with Columba livia. The experiment in a line: Percent inhibition was measured against 5-amino-4-imidazolecarboxamide ribotide transformylase(pigeon liver) enzyme. Conditions: concentration not given here.
The species named for assay [15] is Sus scrofa. The experiment in a line: Percent inhibition was measured against 5,10-Methylene Tetrahydrofolate Reductase (porcine kidney) enzyme. Conditions: concentration not given here.
The species named for assay [16] is Sus scrofa. In words: Percent inhibition was measured against methionine synthetase (porcine kidney)enzyme. The note with it: concentration not given here.
In assay [17] the target is T1, C-1-tetrahydrofolate synthase, cytoplasmic (Homo sapiens). The experiment in a line: Percent inhibition was measured against 5,10-Methylene Tetrahydrofolate Cyclohydrolase (A,porcine liver) enzyme. Conditions: Sus scrofa; target entry is the homologue from another species; concentration not given here.
For assay [18], the system named is Columba livia. In words: Percent inhibition was measured against glycinamide ribotide transformylase (pigeon liver) enzyme. The note with it: concentration not given here.
The species named for assay [19] is Sus scrofa. In words: Percent inhibition was measured against formyl tetrahydrofolate synthase (porcine liver) enzyme. Conditions: concentration not given here.
For assay [20], the target named is T1, C-1-tetrahydrofolate synthase, cytoplasmic (Homo sapiens). The experiment in a line: Percent inhibition was measured against 5,10-Methylene Tetrahydrofolate Cyclohydrolase (porcine liver) enzyme. The note with it: Sus scrofa; target entry is the homologue from another species; concentration not given here.
The test system of assay [21] is Columba livia. In words: Percent inhibition was measured against 5-amino-4-imidazolecarboxamide ribotide transformylase(pigeon liver) enzyme at 10E-4 M inhibitory concentration.
Assay [22] addresses T1, C-1-tetrahydrofolate synthase, cytoplasmic (Homo sapiens). Described as §1. Conditions: Sus scrofa; target entry is the homologue from another species.
Assay [23] is filed under the species Sus scrofa. The experiment in a line: Percent inhibition was measured against formyl tetrahydrofolate synthase (porcine liver) enzyme at 10E-4 M inhibitory concentration.
Assay [24] deals with T1, C-1-tetrahydrofolate synthase, cytoplasmic (Homo sapiens). In words: Percent inhibition was measured against 5,10-Methylene Tetrahydrofolate Cyclohydrolase (porcine liver) enzyme at 10E-7 M inhibitory concentration. The note with it: Sus scrofa; target entry is the homologue from another species.
The target is the same in assay [25]. In words: Percent inhibition was measured against 5,10-Methylene Tetrahydrofolate Cyclohydrolase (L1210 tumor tissue) enzyme at 10E-5 M inhibitory concentration.
For assay [26], the species on record is Sus scrofa. In words: Percent inhibition was measured against Serine transhydroxymethylase (porcine liver) enzyme at 10E-4 M inhibitory concentration.
The target in assay [27] is T1, C-1-tetrahydrofolate synthase, cytoplasmic (Homo sapiens). The description is as §1. Conditions: Sus scrofa; target entry is the homologue from another species. This is another data set of the same source.
A short description of assay [28]: Percent inhibition was measured against 5,10-Methylene Tetrahydrofolate Cyclohydrolase (L1210 tumor tissue) enzyme at 10E-6 M inhibitory concentration.

Values joined by “and” are separate entries in the source; they are usually repeats but may differ in a detail not shown here. Identical values can stand only once.

Chain of Dihydrofolate reductase (Bos taurus) (P00376 whole entry, looked up): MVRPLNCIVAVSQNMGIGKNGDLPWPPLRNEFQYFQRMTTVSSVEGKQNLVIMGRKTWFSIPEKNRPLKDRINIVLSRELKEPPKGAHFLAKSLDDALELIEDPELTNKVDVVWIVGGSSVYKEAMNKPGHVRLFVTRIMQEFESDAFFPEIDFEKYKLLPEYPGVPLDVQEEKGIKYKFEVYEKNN
Chain of Thymidylate synthase (Homo sapiens) (P04818 2-313 limits assumed): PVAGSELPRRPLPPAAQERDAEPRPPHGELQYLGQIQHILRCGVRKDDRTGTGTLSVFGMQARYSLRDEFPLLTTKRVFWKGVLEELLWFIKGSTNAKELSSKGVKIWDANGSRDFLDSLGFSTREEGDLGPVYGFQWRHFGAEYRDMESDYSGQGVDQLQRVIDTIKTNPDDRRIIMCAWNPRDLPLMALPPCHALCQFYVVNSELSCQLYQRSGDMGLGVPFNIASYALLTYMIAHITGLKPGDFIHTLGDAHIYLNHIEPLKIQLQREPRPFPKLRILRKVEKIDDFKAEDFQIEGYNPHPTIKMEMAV

Turning to `Nc1nc2c(c(=O)[nH]1)N1C(=S)N(c3ccc(C(=O)NC(CCC(=O)O)C(=O)O)cc3)CC1CN2` (stereo not drawn), the inhibition in assay [1] stood at 24%; in assay [2], 27%; in assay [3], 50%; in the assay listed under Sus scrofa [4], 5%; in the assay listed under Sus scrofa [5], 24%; in the assay listed under Sus scrofa [6], 0%. The inhibition in assay [7] came out at 30%; with Columba livia [8], 11%; in the assay filed under Sus scrofa [9], 55%; in assay [10] it was 13%; in the assay on Thymidylate synthase it was 8%; with Columba livia [11], 37%. The inhibition in [12] stood at 12%.
Consider `Nc1nc2c(c(=O)[nH]1)N1C=[N+](c3ccc(C(=O)NC(CCC(=O)O)C(=O)O)cc3)CC1CN2` (stereo not drawn), for which the inhibition stood at 0% in [13]; 19% with Columba livia [14]; 40% in the assay filed under Sus scrofa [15]; 10% in the assay filed under Sus scrofa [6]; 15% in assay [7]; 22% in the assay filed under Sus scrofa [16]. Besides, the inhibition in [17] is 9%; in the assay with Columba livia [18], 0%; in the assay filed under Sus scrofa [19], 0%; in assay [20], 0%.
For the molecule `Nc1nc2c(c(=O)[nH]1)N1CCN(c3ccc(C(=O)NC(CCC(=O)O)C(=O)O)cc3)CC1CN2` (stereo not drawn), the inhibition is 33% with Columba livia [21]; 10% in the assay filed under Sus scrofa [4]; 3% and 0% in [22]; 10% in the assay filed under Sus scrofa [6]; 13% in assay [7]; 0% in the assay with Columba livia [8]. Further, the values for the inhibition in the assay filed under Sus scrofa [9], with Thymidylate synthase and in the assay filed under Sus scrofa [23] were 20%, 16% and 0%, respectively.
In the case of `Nc1nc2c(c(=O)[nH]1)N1C(=O)N(c3ccc(C(=O)NC(CCC(=O)O)C(=O)O)cc3)CC1CN2` (stereo not drawn), the inhibition was found to be 24% in assay [1]; 48% in [24]; 48% in assay [3]; 2% in the assay listed under Sus scrofa [4]; 16% in assay [7]; 0% with Columba livia [8]. For the same molecule, the inhibition was 41% in the assay listed under Sus scrofa [9]; 16% in assay [10]; 25% with Thymidylate synthase; 51% in assay [25]; 0% with Columba livia [11]; 40% in the assay filed under Sus scrofa [26]. Further, in the assay listed under Sus scrofa [23], the inhibition is 15%.
Turning to `N=C1N(c2ccc(C(=O)NC(CCC(=O)O)C(=O)O)cc2)CC2CNc3nc(N)[nH]c(=O)c3N12` (stereo not drawn), the inhibition was determined as 13% in the assay on Columba livia [21]; 4% in the assay listed under Sus scrofa [4]; 24% in [22]; 30% in the assay listed under Sus scrofa [6]; 0% in [7]; 0% in the assay with Columba livia [8]. In addition, the inhibition in the assay filed under Sus scrofa [9] is 0%; in assay [27], 61%; in assay [10] it was 12%; with Thymidylate synthase, 0%; in assay [12] it was 24%; in assay [28] it was 43%. The same molecule displayed an inhibition in the assay filed under Sus scrofa [23] of 21%.

The term inhibition denotes the relative decrease from the control value, in per cent. Lower therefore signals a weak effect.
